Data taken from patent publication US20230390416A1, “COMPOSITIONS FOR INDUCING TUMOR IMMUNITY AND REDUCING DRUG TOLERANCE” (The Brigham and Women's Hospital, Inc., priority 2020, published 2023).

Columns and labels:
[1] = clinical Cmax from published literature; used as ex vivo treatment concentration, 72 hours; cited from earlier work
DTCCs = test: Western blot of DTCCs after transient exposure to Rad-NP or radicicol free drug; type: cell-based; conditions: 4 hours exposure, wash-out; in most cases
Method: Protein samples were resolved by SDS-PAGE and transferred to PVDF membranes prior to incubation at 4° C. with indicated primary antibodies, mTOR and pMTOR^Ser2448, pAKT^Thr308 and AKT, Phospho-p44/42 MAPK (Erk1/2)^Thr202/Tyr204, p44/42 MAPK (Erk1/2) pPRAS40^Thr246 pSTAT3^Tyr705, STAT3, PRAS40 and β-Actin antibodies were purchased from Cell Signaling Technology, pHck^Tyr410 (Thermo Fisher Scientific) MICA/B (R&D Systems, Minneapolis, MN) and HSF-1 and HSF-1^Ser326 (abcam).

SUM 159 DTCCs = test: MICA/B expression by flow cytometry in DTCCs under Hsp90 inhibitors; type: cell-based, human; conditions: % MICA/B positively expressing cells, vehicle 30.6 ± 0.9
Method: (§1) Two schedules of drugs in combination were administered to the indicated TNBC parental cell lines (A). […] Plots generated using constant ratio drug combination. […] N=11 in biological replicate. • (D) Quantification of MICA/B mean fluorescence, corrected for background by negative control. […] N≥4 in biological replicate. • (I) In vitro drug synergy was determined using the Chau-Talalay method. Two schedules of drugs in combination were administered to the indicated TNBC parental cell lines (A). […] Plots generated using constant ratio drug combination. Values falling below 1.0 combination index=synergy. • (J) In silico prediction model of drug schedule on signaling pathways. […] The first drug was administered at the beginning of the experiment (t=0), followed by the second drug after 48 h (t=48). […] GAPDH loading control.
(§2) Human MDA-MB-231, MDA-MB-468, MDA-MB-436, MCF-7, mammary carcinoma 4T-1 cells (ATCC) and SUM159 (Bioivt) were purchased in the last 10 years and cultured in 10% fetal bovine serum in DMEM or RPMI media (Invitrogen, Carlsbad CA, USA). Cell lines were validated for absence of mycoplasma prior to use, by the sourcing agency. Cells were used within 10 passages from frozen stock vials obtained from the sourcing agency.

MDA-MB-231 DTCCs [2] = test: as above; type: cell-based, human; conditions: % MICA/B positively expressing cells, overnight (radicicol 5 μM, FIG. 3C), vehicle 76.2 ± 1.1
Method: as §1, §2

MDA-MB-468 DTCCs = test: as above; type: cell-based, human; conditions: % MICA/B positively expressing cells, vehicle 54.7 ± 3.9
Method: as §1, §2

[3] = NPs exemplified in U.S. Pat. No. 10,300,143; cited from earlier work
MDA-MB-468 = test: Fluorescent lipid uptake by flow cytometry, DTCCs vs DNCCs; type: cell-based, human; conditions: multiple TNBC cell lines using epithelial-like MDA-MB-468
MDA-MB-231 DTCCs [4] = test: as above; type: cell-based, human; conditions: for uptake into DTCCs vs. DNCCs: fluorescently labeled lipids, flow cytometry

For `N.N.O=C([O-])C1(C(=O)[O-])CCC1.[Pt+2]` [Carboplatin], which “Cmax (concentration used)” value [1] is on record?
Its value is 37100 ng/mL.

For `C[C@@H]1C[C@H]2O[C@@H]2/C=C\C=C\C(=O)Cc2c(Cl)c(O)cc(O)c2C(=O)O1` [Radicicol, radicicol], which “time of rescue of signaling disruption” value (DTCCs) is on record?
The value was no more than 36 h.

Which results are given for `CC(C)NCCCn1c(Sc2cc3c(cc2I)OCO3)nc2c(N)ncnc21` [PU-H71]?
MICA (%) ± SEM (SUM 159 DTCCs): 33.3 ± 4.1%; MICA (%) ± SEM (MDA-MB-231 DTCCs [2]): 79.5 ± 0.4%; MICA (%) ± SEM (MDA-MB-468 DTCCs): 71.9 ± 4.2%; cytoplasmic sequestration of HSF-1 Ser326 and activation of pro-survival proteins (Hsp90; DTCCs, confocal microscopy and western blot): reversed cytoplasmic sequestration of HSF-1^Ser326 and activation of pro-survival proteins

With `C/C(=C\c1csc(C)n1)[C@@H]1C[C@@H]2O[C@]2(C)CCC[C@H](C)[C@H](O)[C@@H](C)C(=O)C(C)(C)[C@@H](O)CC(=O)N1` [Ixabepilone] as the compound, how does the “Cmax (concentration used)” value [1] read?
Its value is 252 ng/mL.

With `Nc1ccn([C@@H]2O[C@H](CO)[C@@H](O)C2(F)F)c(=O)n1` [Gemcitabine] as the compound, how does the “Cmax (concentration used)” value [1] read?
The value was 22300 ng/mL.

With `CC(C)c1cc(-c2n[nH]c(=O)n2-c2ccc3c(ccn3C)c2)c(O)cc1O` [Ganetespib, ganetespib] as the compound, how does the “MICA (%) ± SEM” value (SUM 159 DTCCs) read?
Its value is 35.4 ± 6.0%.

And the “MICA (%) ± SEM” value (MDA-MB-231 DTCCs [2])?
Its value is 82.5 ± 2.2%.

What about the “MICA (%) ± SEM” value (MDA-MB-468 DTCCs) of the same compound?
Its value is 70.1 ± 3.0%.

Which incorporation efficiency [3] does the source give for `Oc1cccc(-c2nc(N3CCOCC3)c3oc4ncccc4c3n2)c1` [PI-103] here?
The incorporation efficiency was 55-65%.

Which “specificity of binding to DTCCs” value (MDA-MB-468) does the source give for `CCCCCCCC/C=C\CCCCCCCC(=O)OC[C@H](COP(=O)([O-])OCC[N+](C)(C)C)OC(=O)CCCCCNc1ccc([N+](=O)[O-])c2nonc12` [phosphatidylcholine (PC), 1-oleoyl-2-{6-[(7-nitro-2-1,3-benzoxadiazol-4-yl)amino]hexanoyl}-sn-glycero-3-phosphocholine] here?
The value was “bound with the highest degree of specificity”.

And the “rate of internalization in DTCC vs DNCC” value (MDA-MB-231 DTCCs [4]; checked at definite time intervals)?
The value was “higher rate of internalization”.

And the “uptake into DTCCs vs. DNCCs” value (MDA-MB-231 DTCCs [4])?
Its value is “significantly increased uptake into DTCCs vs. DNCCs”.

With `CC(=O)O[C@H]1C(=O)[C@@]2(C)[C@H]([C@H](OC(=O)c3ccccc3)[C@]3(O)C[C@H](OC(=O)[C@H](O)[C@@H](NC(=O)c4ccccc4)c4ccccc4)C(C)=C1C3(C)C)[C@]1(OC(C)=O)CO[C@@H]1C[C@@H]2O` [Paclitaxel] as the compound, how does the Cmax [1] read?
Its Cmax is 6.91 µM.

Which incorporation efficiency [3] does the source give for `Nc1ccc(-c2cccc3c(=O)cc(N4CCOCC4)oc23)cc1` [PI-828] here?
Its incorporation efficiency is roughly 40%.

Which results are given for `CC(=O)O[C@@]12CO[C@@H]1C[C@H](O)[C@@]1(C)C(=O)[C@H](O)C3=C(C)[C@@H](OC(=O)[C@H](O)[C@@H](NC(=O)OC(C)(C)C)c4ccccc4)C[C@@](O)([C@@H](OC(=O)c4ccccc4)[C@H]21)C3(C)C` [Docetaxel, docetaxel]?
active form of HSF-1 (Ser326) (Hsp90; parental MDA-MB-231 cells under docetaxel drug pressure, western blot): induced the active form of HSF-1 (Ser326); Cmax (concentration used) [1]: 2000 ng/mL

With `CCCCCOC(=O)Nc1nc(=O)n([C@@H]2O[C@H](C)[C@@H](O)[C@H]2O)cc1F` [Capecitabine] as the compound, how does the “Cmax (concentration used)” value [1] read?
The value was 3900 ng/mL.

For `C=C1C[C@@H]2CC[C@@]34C[C@H]5O[C@H]6[C@@H](O3)[C@H]3O[C@H](CC[C@@H]3O[C@H]6[C@H]5O4)CC(=O)C[C@@H]3[C@@H](OC)[C@@H](C[C@H](O)CN)O[C@H]3C[C@H]3O[C@@H](CC[C@@H]1O2)C[C@@H](C)C3=C` [Eribulin], which “Cmax (concentration used)” value [1] is on record?
Its value is 371 ng/mL.

For `CCCCCCCC/C=C\CCCCCCCC(=O)OC[C@H](COP(=O)(O)O)OC(=O)CCCCCCCCCCCNc1ccc([N+](=O)[O-])c2nonc12.N.N` [phosphatidic acid (PA), 1-oleoyl-2-{12-[(7-nitro-2-1,3-benzoxadiazol-4-yl)amino]dodecanoyl}-sn-glycero-3-phosphate (ammonium salt)], which “uptake into DTCCs vs. DNCCs” value (MDA-MB-231 DTCCs [4]) is on record?
Its value is “to a lesser degree”.

With “Pembrolizumab: clinically-approved anticancer drug” as the compound, how does the “Cmax (concentration used)” value [1] read?
The value was 65700 ng/mL.

What does the source list for `CC(CCC[C@@H](C)[C@@H]1CC[C@H]2[C@@H]3CC=C4C[C@@H](O)CC[C@]4(C)[C@H]3CC[C@@]21C)N(C)c1ccc([N+](=O)[O-])c2nonc12` (some centres unmarked) [cholesterol, 25-[N-[(7-nitro-2-1,3-benzoxadiazol-4-yl)methyl]amino]-27-norcholesterol]?
specificity of binding to DTCCs (MDA-MB-468): bound with the highest degree of specificity; uptake into DTCCs vs. DNCCs (MDA-MB-231 DTCCs [4]): significantly increased uptake into DTCCs vs. DNCCs

For `CCC1=C[C@@H]2CN(C1)Cc1c([nH]c3ccccc13)[C@@](C(=O)OC)(c1cc3c(cc1OC)N(C)[C@H]1[C@@](O)(C(=O)OC)[C@H](OC(C)=O)[C@]4(CC)C=CCN5CC[C@]31[C@@H]54)C2` [Vinorelbine], which “Cmax (concentration used)” value [1] is on record?
Its value is 126.6 ng/mL.
